# Patent publication US20240391862A1, “(1,4,5-TRISUBSTITUTED-1H-PYRAZOL-3-YL)OXY-2-ALKOXY ALKYL ACIDS AND THEIR DERIVATIVES, THEIR SALTS AND THEIR USE AS HERBICIDAL AGENTS” (Bayer AKtiengesellschaft, priority 2021, published 2024)
# Assays:
# Assay in all cases: Post-emergence herbicidal effect, greenhouse pot test
# VERPE = type: in vivo, Veronica persica
# Procedure, shortened: (§1)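 Visual % activity scored roughly 3 weeks post-spray against untreated plants, where 100% means death and 0% equals control. Plants were treated at the one-leaf stage, 2 to 3 weeks after sowing in sandy loam, at 20 to 320 g/ha.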
# DIGSA = type: in vivo, Digitaria sanguinalis; details: 320 g/ha, visual rating about 3 weeks after treatment
# Procedure, shortened: as §1
# AMARE = type: in vivo, Amaranthus retroflexus; details: visual rating about 3 weeks after treatment
# Procedure, shortened: as §1
# VIOTR = type: in vivo, Viola tricolor
# Procedure, shortened: as §1
# MATIN = type: in vivo, Tripleurospermum inodorum
# Procedure, shortened: as §1
# ECHCG = type: in vivo, Echinochloa crus-galli
# Procedure, shortened: as §1
# POLCO = type: in vivo, Fallopia convolvulus
# Procedure, shortened: as §1
# KCHSC = type: in vivo; details: 320 g/ha
# Procedure, shortened: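 Greenhouse plants in sandy loam, sprayed post-emergence at the one-leaf stage (2–3 weeks after sowing) with WP or EC formulations in water plus 0.5% additive at 600 l/ha. Rates 20 to 320 g/ha. Activity rated visually after about 3 weeks against untreated controls (0% like control, 100% dead).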
# ABUTH = type: in vivo, Abutilon theophrasti; details: visual rating about 3 weeks after treatment
# Procedure, shortened: as §1
# AVEFA = type: in vivo, Avena fatua; details: visual rating about 3 weeks after treatment
# Procedure, shortened: as §1
# ALOMY = type: in vivo, Alopecurus myosuroides; details: visual rating about 3 weeks after treatment
# Procedure, shortened: as §1
# LOLRI = type: in vivo, Lolium rigidum
# Procedure, shortened: as §1
# SETVI = type: in vivo, Setaria viridis
# Procedure, shortened: as §1
# PHBPU = type: in vivo, Ipomoea purpurea
# Procedure, shortened: as §1
smiles,measurement,setting,value
"COC(=O)CCOC(=O)C(OC)Oc1nn(-c2cc(F)ccc2F)c(-c2cncc(F)c2)c1C1CC1 (single isomer, unassigned) [Example I-79]",Post-emergence effect against VERPE in %,VERPE; 20 g/ha,90%
same,Post-emergence effect against VERPE in %,VERPE; 80 g/ha,90%
same,Post-emergence effect against VERPE in %,VERPE; 320 g/ha,90%
same,Post-emergence effect against DIGSA,DIGSA,80%
same,Post-emergence effect against AMARE,AMARE; 20 g/ha,80%
same,Post-emergence effect against AMARE,AMARE; 80 g/ha,80%
same,Post-emergence effect against AMARE,AMARE; 320 g/ha,80%
same,Post-emergence effect against VIOTR in %,VIOTR; 20 g/ha,90%
same,Post-emergence effect against VIOTR in %,VIOTR; 80 g/ha,90%
same,Post-emergence effect against VIOTR in %,VIOTR; 320 g/ha,90%
same,Post-emergence effect against MATIN in %,MATIN; 80 g/ha,80%
same,Post-emergence effect against MATIN in %,MATIN; 320 g/ha,80%
same,Post-emergence effect against ECHCG,"ECHCG; 20 g/ha, visual rating about 3 weeks after treatment",80%
same,Post-emergence effect against ECHCG in %,ECHCG; 80 g/ha,90%
same,Post-emergence effect against ECHCG in %,ECHCG; 320 g/ha,90%
same,Post-emergence effect against POLCO in %,POLCO; 80 g/ha,90%
same,Post-emergence effect against POLCO in %,POLCO; 320 g/ha,90%
same,Post-emergence effect against KCHSC in %,KCHSC,80%
same,Post-emergence effect against ABUTH,ABUTH; 20 g/ha,80%
same,Post-emergence effect against ABUTH,ABUTH; 80 g/ha,80%
same,Post-emergence effect against ABUTH,ABUTH; 320 g/ha,90%
same,Post-emergence effect against AVEFA,AVEFA; 80 g/ha,90%
same,Post-emergence effect against AVEFA,AVEFA; 320 g/ha,90%
same,Post-emergence effect against ALOMY,ALOMY; 80 g/ha,80%
same,Post-emergence effect against ALOMY,ALOMY; 320 g/ha,90%
same,Post-emergence effect against LOLRI in %,LOLRI; 80 g/ha,90%
same,Post-emergence effect against LOLRI in %,LOLRI; 320 g/ha,90%
same,Post-emergence effect against SETVI in %,SETVI; 20 g/ha,90%
same,Post-emergence effect against SETVI in %,SETVI; 80 g/ha,90%
same,Post-emergence effect against SETVI in %,SETVI; 320 g/ha,90%
same,Post-emergence effect against PHBPU in %,PHBPU; 20 g/ha,90%
same,Post-emergence effect against PHBPU in %,PHBPU; 80 g/ha,90%
same,Post-emergence effect against PHBPU in %,PHBPU; 320 g/ha,90%
CCOC(=O)C(OCC)Oc1nn(-c2ccccc2F)c(-c2ccc(F)nc2)c1Cl (stereo not drawn) [Example I-50],pest or weed control at 80 g/ha,"VERPE; Veronica persica, 504 h, 80 g/ha, read-out: Post-emergence effect against VERPE in %",90%
same,pest or weed control at 320 g/ha,"VERPE; Veronica persica, 504 h, 320 g/ha, read-out: Post-emergence effect against VERPE in %",90%
same,pest or weed control at 320 g/ha,"DIGSA; Digitaria sanguinalis, 504 h, read-out: Post-emergence effect against DIGSA",90%
same,pest or weed control at 320 g/ha,"AMARE; Amaranthus retroflexus, 504 h, 320 g/ha, read-out: Post-emergence effect against AMARE",80%
same,pest or weed control at 80 g/ha,"VIOTR; Viola tricolor, 504 h, 80 g/ha, read-out: Post-emergence effect against VIOTR in %",80%
same,pest or weed control at 320 g/ha,"VIOTR; Viola tricolor, 504 h, 320 g/ha, read-out: Post-emergence effect against VIOTR in %",90%
same,pest or weed control at 320 g/ha,"MATIN; Tripleurospermum inodorum, 504 h, 320 g/ha, read-out: Post-emergence effect against MATIN in %",80%
same,pest or weed control at 20 g/ha,"ECHCG; Echinochloa crus-galli, 504 h, 20 g/ha, visual rating about 3 weeks after treatment, read-out: Post-emergence effect against ECHCG",90%
same,pest or weed control at 80 g/ha,"ECHCG; Echinochloa crus-galli, 504 h, 80 g/ha, read-out: Post-emergence effect against ECHCG in %",90%
same,pest or weed control at 320 g/ha,"ECHCG; Echinochloa crus-galli, 504 h, 320 g/ha, read-out: Post-emergence effect against ECHCG in %",90%
same,pest or weed control at 320 g/ha,"POLCO; Fallopia convolvulus, 504 h, 320 g/ha, read-out: Post-emergence effect against POLCO in %",80%
same,pest or weed control at 320 g/ha,"KCHSC; 504 h, read-out: Post-emergence effect against KCHSC in %",80%
same,pest or weed control at 80 g/ha,"ABUTH; Abutilon theophrasti, 504 h, 80 g/ha, read-out: Post-emergence effect against ABUTH",80%
same,pest or weed control at 320 g/ha,"ABUTH; Abutilon theophrasti, 504 h, 320 g/ha, read-out: Post-emergence effect against ABUTH",90%
same,pest or weed control at 320 g/ha,"AVEFA; Avena fatua, 504 h, 320 g/ha, read-out: Post-emergence effect against AVEFA",90%
same,pest or weed control at 320 g/ha,"ALOMY; Alopecurus myosuroides, 504 h, 320 g/ha, read-out: Post-emergence effect against ALOMY",80%
same,pest or weed control at 320 g/ha,"LOLRI; Lolium rigidum, 504 h, 320 g/ha, read-out: Post-emergence effect against LOLRI in %",90%
same,pest or weed control at 80 g/ha,"SETVI; Setaria viridis, 504 h, 80 g/ha, read-out: Post-emergence effect against SETVI in %",90%
same,pest or weed control at 320 g/ha,"SETVI; Setaria viridis, 504 h, 320 g/ha, read-out: Post-emergence effect against SETVI in %",90%
same,pest or weed control at 80 g/ha,"PHBPU; Ipomoea purpurea, 504 h, 80 g/ha, read-out: Post-emergence effect against PHBPU in %",90%
same,pest or weed control at 320 g/ha,"PHBPU; Ipomoea purpurea, 504 h, 320 g/ha, read-out: Post-emergence effect against PHBPU in %",90%
